Values quoted from earlier work in patent publication US20170068777A1, “METHODS OF IDENTIFYING AND F[…] COMPOUNDS THAT MODULATE PHENOTYPE-RELATED TARGETS” (Tufts University, priority 2015, published 2017).

Details: shown experimentally in the literature

SMILES | effect on TG levels
CC1(C(=O)O)CCC2(C)CCC3(C)C(=CCC4C5(C)CCC(O)C(C)(CO)C5CCC43C)C2C1 (centres unmarked) [Azukisapogenol] | lower TG levels
CC1(C)[C@@H](O)CC[C@]2(C)[C@H]3C(=O)C=C4[C@@H]5C[C@@](C)(C(=O)O)CC[C@]5(C)CC[C@@]4(C)[C@]3(C)CC[C@@H]12 [Glycyrrhetic acid] | lower TG levels
